≈ marks a conversion by molar mass, not a printed value. Where a SMILES comes first, the peptide text is derived from it. Bridges are numbered along the chain shown (N, C = ends). Roman numbers before positions name the chains, in order. [ ]: non-standard residue; d: D form. βAla = NCCC(=O)O
How the values were obtained:
[1] = tested on: Enterobacer aerogenes W03BG0067; format: cell-based; settings: 24 h
[2] = tested on: Klebsiella pneumoniae ATCC 13833; format: cell-based; settings: ATCC 13833, 24 h
[3] = tested on: Proteus mirabilis W03VA1017; format: cell-based; settings: W03VA1017, 24 h
[4] = tested on: Pseudomonas aeruginosa ATCC 27853; format: cell-based; settings: ATCC 27853, 24 h
[5] = tested on: Serratia marcescens W03BG0003; format: cell-based; settings: W03BG0003, 24 h
K pneumoniae 7086042 = format: cell-based, Klebsiella pneumoniae; settings: 7086042, 24 h
K pneumoniae C8-27 = format: cell-based, Klebsiella pneumoniae; settings: C8-27, 24 h
K pneumoniae FIPP-1 = format: cell-based, Klebsiella pneumoniae; settings: FIPP-1, 24 h
E. coli W03BG0025 = format: cell-based, Escherichia coli; settings: W03BG0025, 24 h
A. baumannii MR157 = format: cell-based, Acinetobacter baumannii; settings: MR157, 24 h
A. baumannii RUH 875 = format: cell-based, Acinetobacter baumannii; settings: RUH 875, 24 h
S. aureus 3851 = format: cell-based, Staphylococcus aureus; settings: 3851, 24 h
LPS = experiment: Limulus amebocyte lysate test (E-toxate), LPS neutralization; settings: not shown
[6] = tested on: LPS from P. aeruginosa serotype 10 ATCC27316; TNF-α secretion by Raw 264.7 macrophages; experiment: Inhibition of LPS-induced TNF-α secretion by Raw 264.7 macrophages, LPS from P. aeruginosa; format: cell-based
Protocol: (§1) FIG. 3. Inhibition of TNF-α release by neutralization of LPS. A, Raw 264.7 cells were incubated with LPS from P. aeruginosa 20 ng/ml and M33. Triangles indicate incubation with LPS and different concentrations of M33. Squares indicate incubation with M33 only. B, Raw 264.7 cells were incubated with LPS from K. pneumoniae 5 ng/ml and M33. Triangles indicate incubation of macrophages with LPS and different concentrations of M33. Squares indicate incubation of macrophages with M33 only. SD derived by means of three different experiments. 100% indicates the maximum amount of TNF-α produced by macrophages when incubated with LPS without M33. The other percentages indicate the amount of TNF-α produced by macrophages when incubated with LPS and M33, with respect to 100%. Basal levels of TNF-α were negligible. MIC of M33 is indicated by the arrow.
(§2) Then it was examined for inhibiting LPS-induced TNF-α, secretion by Raw 264.7 macrophages.

[7] = tested on: LPS from K. pneumoniae ATCC15380; TNF-α secretion by Raw 264.7 macrophages; experiment: Inhibition of LPS-induced TNF-α secretion by Raw 264.7 macrophages, LPS from K. pneumoniae; format: cell-based
Protocol: as §1, §2

P. aeruginosa VR-143/97 = experiment: In vivo antibacterial activity, mice infected ip with lethal amount of MDR P. aeruginosa VR-143/97; set-up: species or system Balb-c mice; settings: MDR P. aeruginosa VR-143/97 1.5×10^7 CFU ip; single dose 25 mg/Kg
Protocol: FIG. 4. In vivo antibacterial activity of tetra-branched M33 peptide. A, Balb-c mice (20 g) were intra-peritoneally injected with a lethal amount of E. coli TG1 cells (1.5×10^9 CFU). Continuous line (Ctr) indicates mice only injected ip with bacteria and no M33. Broken line indicates mice injected ip with bacteria and a single injection of M33 peptide 10 mg/Kg 30 minutes later. B, Balb-c mice (20 g) were intra-peritoneally injected with a lethal amount of P. aeruginosa cells (ATCC 27853 1×10^7 CFU). Continuous line (Ctr) indicates mice which only received bacteria; other groups received bacteria and a single dose of M33 30 minutes later (see figure for doses of M33). C, Balb-c mice (20 g) were intra-peritoneally injected with a lethal amount of P. aeruginosa cells (multi drug resistant VR 147 clinical isolate, 1.5×10^7 CFU). Continuous line (Ctr) indicates mice which only received bacteria; broken line indicates mice which received bacteria and a single dose of M33 25 mg/Kg. D, Balb-c mice (20 g) were intra-peritoneally injected with a lethal amount of P. aeruginosa cells (ATCC 27853 1×10^7 CFU). […]
Tetra-branched M33 peptide was analysed for its antibacterial activity in mice infected with lethal amounts of bacteria. […]

P. aeruginosa ATCC 27853 = experiment: Bacterial load of P. aeruginosa in a mouse sepsis model; format: in vivo; settings: P. aeruginosa 1 × 10^7 CFU/mouse ip, M33 25 mg/Kg
Protocol: After 40 hours, all sampled body sites were apparently clear of bacteria (Table 2).

[8] = tested on: P. aeruginosa and K. pneumoniae; format: cell-based; settings: 24 h
Protocol: M33, […], M35 and M36 MICs were determined against strains of several bacterial species, including Gram-negative pathogens and also Staphylococcus aureus (Table 1). MICs in the micromolar range were observed against several Gram-negatives including Pseudomonas aeruginosa, Acinetobacter baumannii and most Enterobacteriaceae, with the exception of Proteus mirabilis, Serratia marcescens and Burkholderia cepacia. Activity of peptides was retained against MDR strains with various resistance mechanisms (such as extended-spectrum beta-lactamases and carbapenemases), including MDR P. aeruginosa strains from CF patients. Antimicrobial profile of M33, […] and potency were overall similar to those of polymyxin B, although M33, M34, M35 and M36 also appeared to have some activity against S. aureus (Table 1).
as §2

[9] = sacrificed 18 h after infection
[10] = sacrificed 40 h after infection

CC[C@H](C)[C@H](NC(=O)[C@H](CCCCN)NC(=O)[C@@H](N)CCCCN)C(=O)N[C@@H](CCCNC(=N)N)C(=O)N[C@H](C(=O)N[C@@H](CCCNC(=N)N)C(=O)N[C@@H](CC(C)C)C(=O)N[C@@H](CO)C(=O)N[C@@H](C)C(=O)NCCCC[C@H](NC(=O)[C@H](C)NC(=O)[C@H](CO)NC(=O)[C@H](CC(C)C)NC(=O)[C@H](CCCNC(=N)N)NC(=O)[C@@H](NC(=O)[C@H](CCCNC(=N)N)NC(=O)[C@@H](NC(=O)[C@H](CCCCN)NC(=O)[C@@H](N)CCCCN)[C@@H](C)CC)C(C)C)C(=O)NCCCC[C@H](NC(=O)[C@H](CCCCNC(=O)[C@H](C)NC(=O)[C@H](CO)NC(=O)[C@H](CC(C)C)NC(=O)[C@H](CCCNC(=N)N)NC(=O)[C@@H](NC(=O)[C@H](CCCNC(=N)N)NC(=O)[C@@H](NC(=O)[C@H](CCCCN)NC(=O)[C@@H](N)CCCCN)[C@@H](C)CC)C(C)C)NC(=O)[C@H](C)NC(=O)[C@H](CO)NC(=O)[C@H](CC(C)C)NC(=O)[C@H](CCCNC(=N)N)NC(=O)[C@@H](NC(=O)[C@H](CCCNC(=N)N)NC(=O)[C@@H](NC(=O)[C@H](CCCCN)NC(=O)[C@@H](N)CCCCN)[C@@H](C)CC)C(C)C)C(=O)NCCC(=O)O)C(C)C [M33, KKIRVRLSA] (I: H-KKIRVRLSAKK[βAla]-OH / II: H-KKIRVRLSAK / III: H-KKIRVRLSA / IV: H-KKIRVRLSA; amide I:10-IV:C, I:11-II:C, II:10-III:C; N-terminus assumed)
MIC [1]: 1.5 µM (≈ 7.02 µg/mL) | MIC [2]: 1.5 µM (≈ 7.02 µg/mL) | MIC [3]: >24 µM | MIC [4]: 1.5 µM (≈ 7.02 µg/mL) | MIC [5]: >24 µM | MIC (K pneumoniae 7086042): 3 µM (≈ 14 µg/mL) | MIC (K pneumoniae C8-27): 1.5 µM (≈ 7.02 µg/mL) | MIC (K pneumoniae FIPP-1): 3 µM (≈ 14 µg/mL) | MIC (E. coli W03BG0025): 0.7 µM (≈ 3.28 µg/mL) | MIC (A. baumannii MR157): 3 µM (≈ 14 µg/mL) | MIC (A. baumannii RUH 875): 3 µM (≈ 14 µg/mL) | MIC (S. aureus 3851): 6 µM (≈ 28.1 µg/mL) | Neutralization of sample gelification due to LPS (LPS): ability to neutralize sample gelification due to LPS | EC50 ([6]; Raw 264.7 macrophages, LPS from P. aeruginosa serotype 10 ATCC27316, 20 ng/ml, read-out: EC50, block of TNF-α secretion): 40 nM | Decrease of TNF-α production ([6]; at a concentration corresponding to MIC (1.5-3 μM), LPS from P. aeruginosa): more than 90% | EC50 ([7]; Raw 264.7 macrophages, LPS from K. pneumoniae ATCC15380, 5 ng/ml, read-out: EC50, block of TNF-α secretion): 260 nM | Decrease of TNF-α production ([7]; at a concentration corresponding to MIC (1.5-3 μM), LPS from K. pneumoniae): more than 80% | Animals protected (P. aeruginosa VR-143/97): 100% | Bacterial count (mean ± SD) in Blood (P. aeruginosa ATCC 27853; [9]): <1 × 10^2 CFU/ml | Bacterial count (mean ± SD) in Liver (P. aeruginosa ATCC 27853; [9]): 3 × 10^5 ± 6.7 × 10^5 CFU/organ | Bacterial count (mean ± SD) in Spleen (P. aeruginosa ATCC 27853; [9]): 2.4 × 10^4 ± 5.3 × 10^4 CFU/organ | Bacterial count (mean ± SD) in Blood (P. aeruginosa ATCC 27853; [10]): <1 × 10^2 CFU/ml | Bacterial count (mean ± SD) in Liver (P. aeruginosa ATCC 27853; [10]): <1 × 10^2 CFU/organ | Bacterial count (mean ± SD) in Peritoneum (P. aeruginosa ATCC 27853; [10]): <1 × 10^2 CFU/ml | Bacterial count (mean ± SD) in Spleen (P. aeruginosa ATCC 27853; [10]): <1 × 10^2 CFU/organ | MIC [8]: 1.5 to 3 µM
